Key:
[1] = tested on: Ch-1 cell adhesion to PIIBNP; assay: Inhibition of Ch-1 cell adhesion to PIIBNP by synthetic blocking peptides and integrin antibodies; format: cell-based, human
Experimental: (§1) Cell Adhesion Assay. Cell adhesion assays were performed using a spectrometric method. A 96-well plate was coated at 4° C. overnight with recombinant proteins. Wells were washed three times with RPMI-1640 medium containing 10% FBS. Ch-1 cells were harvested with limited trypsin digestion and plated at 5×10^4 cells per well in RPMI-1640 medium supplemented with 10% FBS for an hours. Proteins were added and incubation continued for 1 hour. The wells were washed three times with pre-warmed PBS to remove non-adherent cells. The adherent cells were fixed with 4% paraformaldehyde in PBS for 10 minutes at room temperature and stained with 0.5% toluidine blue for 5 minutes. The wells were rinsed with water and cells were solubilized with 0.1% SDS. Absorbance at 595 nm was recorded on a SpectraMax plate reader. Synthetic blocking peptides and antibodies to αVβ3 and αVβ5 integrin were pre-incubated with cells for 15 to 30 mins before they were added onto the wells in the inhibition assays.
Antibodies. Monoclonal antibodies used for blocking experiments were: mouse anti αVβ3 and αVβ5 integrins (Chemicon). Polyclonal antibodies for immunohistochemistry and western blotting were rabbit anti human αV, α2, α3, α5, β1, β3, β5 integrin, goat anti human actin (Santa Cruz), mouse anti exon 2, rabbit anti GSTexon 2, and chicken anti PIIBNP (antiserum made in our lab).

Ch-1 cells [2] = assay: Cell adhesion assay (Ch-1 cells on wells coated with recombinant proteins); format: cell-based, human; settings: wells coated with recombinant protein
Experimental: as §1
Cell Culture. Human Chondrosarcoma cell line (Ch-1) was isolated from a portion of chondrosarcoma tumor (Chansky et al., J Orthop Res. (1998) 16(5):521-30). The Ch-1 cell line was maintained in RPMI-1640 supplemented with 10% FBS and at 37° C. in a humidified, 5% CO2 atmosphere.

Ch-1 cells [3] = assay: Detection of cell death in Ch-1 cells; format: cell-based, human; settings: 0.8 μM, serum free medium, 24 hrs; type I collagen, fibronectin or Matrigel coated plates
Experimental: Cell Culture. Human Chondrosarcoma cell line (Ch-1) was isolated from a portion of chondrosarcoma tumor. The Ch-1 cell line was maintained in RPMI-1640 supplemented with 10% FBS and at 37° C. in a humidified, 5% CO2 atmosphere. Human chondrocytes were obtained from Dr. Davis Adkisson (ISTO Technologies, St. Louis) or isolated from macroscopically intact tissue obtained from total joint arthroplasty as described (Bassleer et al., 1998). HeLa 229 cells and MDA-MB 231 cell lines were provided by Dr. Kathy Weilbaecher (Washington University) and were cultured in RPMI medium supplemented with 10% FBS. HUVEC cells were a gift from Dr. William Frazier (Washington University) and were cultured in M199 Earle's medium with 10 units/ml of penicillin, 5 μg/ml streptomycin and 0.25 μg/ml Fungizone supplemented with 10% FBS, 0.1 mg/ml L-glutamine, 25 mM Hepes, 16 units/ml of heparin (Sigma) and 0.1 mg/ml endothelial cell mitogen (Biochemical Technologies).
Detection of Cell Death. Cells were cultured to confluence in a 24-well plate pre-coated with type I collagen, fibronectin (Sigma), and ECM Matrigel (Becton Dickinson). Proteins in serum-free medium were added to the cells. Cells were monitored by light microscopy and images were digitally photographed using a Q capture Retiga 2000R camera. Quantification of cells remaining in the well was performed by washing with PBS for three times, fixing with 4% paraformaldehyde. The cells per field (×400) were counted for three field per well (3 wells per measurement). The mean number and standard deviation (SD) were calculated.

αVβ5 integrin = biological target: T1, αVβ5 integrin (Homo sapiens, UniProt P06756+P18084); assay: Cell surface labeling and GST pull-down with immunoblotting; format: binding; settings: biotin-labeled Ch-1 membrane proteins, Western blot
T1 construct: Ch-1 membrane proteins were labeled with biotin, and PIIBNP was used to isolate the integrin molecules; endogenous in cells; host or cells: Ch-1 human chondrosarcoma cells (surface-biotinylated, lysed)
Experimental: (§2) Immunoblotting. Western blotting was performed as described (7). Blots were probed with the following primary antibodies: rabbit anti αV, α2, α3, α5, β1, β3, β5 integrin and goat anti actin (Saint Cruz), chicken anti PIIBNP antiserum, and mouse anti exon 2 antiserum.
(§3) Cell Surface labeling and GST Pull-down Assay. Ch-1 cells were incubated with EZ-link Sulfo-NHS-Biotin reagent for 30 mins. according to the product instruction (Sigma). After 3 washes with 0.1 M glycine in PBS, the cells were lysed with a lysis buffer described above. The lysate was incubated with glutathione derivatized agarose beads previously bound with GST, PIIANP, PIIBNP or mPIIBNP for 1 hr. at RT. […] The membrane was washed and incubated with antibodies and then incubated with a secondary antibody coupled to horseradish peroxidase. The antibody complex was visualized by enhanced chemiluminescence.

αVβ3 integrin = biological target: T2, αVβ3 integrin (Homo sapiens, UniProt P05106+P06756); assay: as above; format: binding; settings: biotin-labeled Ch-1 membrane proteins, Western blot
T2 construct: Ch-1 membrane proteins were labeled with biotin, and PIIBNP was used to isolate the integrin molecules; endogenous in cells; host or cells: Ch-1 human chondrosarcoma cells (surface-biotinylated, lysed)
Experimental: as §2, §3

HUVEC cells = assay: HUVEC cell death; format: cell-based, human; settings: 60 hrs, 37° C.; higher concentrations
Experimental: FIG. 6 depicts photographs and graphs showing that PIIBNP inhibits angiogenesis. […] Quantification of tube formation was calculated based on branch points per field of view (FIG. 6C) for each treatment ranging from 0.1 μM to 10 μM of PIIBNP. […] GST (▴) and PIIANP (●) had no effect on the cells.
As a second test for angiogenesis, we tested the ability of PIIBNP to inhibit outgrowth of endogenous endothelial cells from freshly isolated rat aorta. […] In order to determine whether PIIBNP caused endothelial cell death, the number of HUVEC cells present after incubation with PIIBNP was determined (FIGS. 6E and 8). Tube formation was inhibited by 50% with 0.1 μM PIIBNP, with no cell death. […] Consequently, PIIBNP can inhibit angiogenesis in a cell line and in endogenous endothelial cells mediated by integrins αVβ3 and αVβ5.

T1 sequence (P06756 31-889 limits assumed): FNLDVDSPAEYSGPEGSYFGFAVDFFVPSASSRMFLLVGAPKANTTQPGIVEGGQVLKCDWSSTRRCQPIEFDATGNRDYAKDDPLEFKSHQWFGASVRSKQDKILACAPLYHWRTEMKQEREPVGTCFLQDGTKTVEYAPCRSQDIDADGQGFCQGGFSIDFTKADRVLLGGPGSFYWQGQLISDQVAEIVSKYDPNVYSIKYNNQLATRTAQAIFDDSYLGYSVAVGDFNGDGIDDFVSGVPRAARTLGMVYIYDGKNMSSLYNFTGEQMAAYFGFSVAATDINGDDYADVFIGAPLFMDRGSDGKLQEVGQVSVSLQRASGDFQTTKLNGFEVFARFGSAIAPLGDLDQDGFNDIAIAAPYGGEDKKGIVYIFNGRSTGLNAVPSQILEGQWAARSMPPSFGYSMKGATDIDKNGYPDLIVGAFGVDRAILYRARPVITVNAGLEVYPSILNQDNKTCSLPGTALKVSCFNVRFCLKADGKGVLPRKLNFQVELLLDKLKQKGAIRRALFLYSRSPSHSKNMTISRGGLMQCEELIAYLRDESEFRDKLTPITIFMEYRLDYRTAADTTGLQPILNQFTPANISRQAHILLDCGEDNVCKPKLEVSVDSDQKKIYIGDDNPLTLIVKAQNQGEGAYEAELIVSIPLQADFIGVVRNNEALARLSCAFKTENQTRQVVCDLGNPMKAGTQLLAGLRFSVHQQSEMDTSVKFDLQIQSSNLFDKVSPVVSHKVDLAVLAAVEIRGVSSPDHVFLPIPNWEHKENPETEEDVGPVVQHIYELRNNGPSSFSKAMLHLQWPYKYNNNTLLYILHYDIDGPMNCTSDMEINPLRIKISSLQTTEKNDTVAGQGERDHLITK
T1 sequence (P06756 891-1048 limits assumed): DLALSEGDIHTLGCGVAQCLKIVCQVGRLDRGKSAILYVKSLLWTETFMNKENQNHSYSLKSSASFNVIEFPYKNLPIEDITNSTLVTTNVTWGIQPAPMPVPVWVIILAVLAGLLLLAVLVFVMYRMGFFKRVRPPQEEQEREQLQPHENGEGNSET
T1 sequence (P18084 24-799): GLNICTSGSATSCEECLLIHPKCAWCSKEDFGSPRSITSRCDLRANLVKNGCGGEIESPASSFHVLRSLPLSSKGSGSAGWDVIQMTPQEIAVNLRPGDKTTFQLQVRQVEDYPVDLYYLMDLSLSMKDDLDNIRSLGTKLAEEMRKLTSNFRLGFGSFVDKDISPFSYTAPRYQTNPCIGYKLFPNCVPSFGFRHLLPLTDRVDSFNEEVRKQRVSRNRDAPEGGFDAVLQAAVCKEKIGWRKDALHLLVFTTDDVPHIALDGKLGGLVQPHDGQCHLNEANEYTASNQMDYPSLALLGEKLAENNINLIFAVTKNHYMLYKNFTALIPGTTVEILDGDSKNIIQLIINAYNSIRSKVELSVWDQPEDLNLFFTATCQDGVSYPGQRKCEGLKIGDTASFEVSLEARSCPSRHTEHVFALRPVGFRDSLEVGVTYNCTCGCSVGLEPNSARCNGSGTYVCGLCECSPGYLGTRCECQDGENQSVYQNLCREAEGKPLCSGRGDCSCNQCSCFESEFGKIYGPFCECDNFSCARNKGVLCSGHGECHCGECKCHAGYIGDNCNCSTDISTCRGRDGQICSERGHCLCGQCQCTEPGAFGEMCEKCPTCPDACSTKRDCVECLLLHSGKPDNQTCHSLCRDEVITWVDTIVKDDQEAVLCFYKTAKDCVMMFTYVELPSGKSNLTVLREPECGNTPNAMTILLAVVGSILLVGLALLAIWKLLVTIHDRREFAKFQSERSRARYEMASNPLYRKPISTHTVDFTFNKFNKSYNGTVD
T2 sequence (P06756 31-889 limits assumed): as the sequence (P06756 31-889 limits assumed) above
T2 sequence (P06756 891-1048 limits assumed): as the sequence (P06756 891-1048 limits assumed) above
T2 sequence (P05106 27-788): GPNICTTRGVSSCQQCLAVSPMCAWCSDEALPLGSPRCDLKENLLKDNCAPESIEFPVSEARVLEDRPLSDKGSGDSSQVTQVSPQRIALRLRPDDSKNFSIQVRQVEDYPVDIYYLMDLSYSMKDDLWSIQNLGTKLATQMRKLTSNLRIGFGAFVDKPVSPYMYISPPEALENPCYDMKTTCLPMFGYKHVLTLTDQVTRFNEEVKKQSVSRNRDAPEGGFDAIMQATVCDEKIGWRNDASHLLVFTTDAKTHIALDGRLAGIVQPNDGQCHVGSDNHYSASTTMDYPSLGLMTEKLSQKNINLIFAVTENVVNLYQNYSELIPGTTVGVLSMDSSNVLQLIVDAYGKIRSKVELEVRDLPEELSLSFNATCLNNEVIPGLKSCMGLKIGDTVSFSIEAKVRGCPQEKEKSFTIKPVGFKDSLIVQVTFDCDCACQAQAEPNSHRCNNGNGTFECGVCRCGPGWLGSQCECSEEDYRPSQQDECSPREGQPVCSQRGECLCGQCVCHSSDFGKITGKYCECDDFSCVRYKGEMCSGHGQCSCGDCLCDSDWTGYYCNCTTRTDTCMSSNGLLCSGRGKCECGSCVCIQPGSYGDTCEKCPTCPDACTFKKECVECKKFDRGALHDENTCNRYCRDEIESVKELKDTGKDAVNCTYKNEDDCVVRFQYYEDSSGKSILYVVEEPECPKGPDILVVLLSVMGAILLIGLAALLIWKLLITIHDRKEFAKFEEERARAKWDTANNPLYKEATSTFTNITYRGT

Substance: GRADNP (listed as Homo sapiens)
- inhibition of adhesion ([1]; at 60 μM): ~50%

Substance: PIIBNPn: PIIBNP obtained by cleavage of GST from a GST-PIIBNP fusion protein with thrombin beads
- adhesion to Ch-1 cells (Ch-1 cells [2]): strong binding

Substance: GST: Recombinant GST alone, control protein for the GST fusion proteins [reference compound]
- induction of cell death in Ch-1 cells (Ch-1 cells [3]): did not induce cell death
- binding to integrin αVβ5 (αVβ5 integrin): does not
- binding to integrin αVβ3 (αVβ3 integrin): does not
- HUVEC cell death (HUVEC cells): no effect

Substance: GRGDNP (listed as Homo sapiens)
- inhibition of adhesion ([1]; at 10 μM): 50%
- compete and inhibit adhesion ([1]; synthetic peptides pre-incubated with cells): compete and inhibit adhesion

Source: US7851436B2, “Inhibition of migration and induction of cell death by the type II collagen amino propeptides” (Washington University, priority 2007, dated 2010)
